# Source: ChEMBL document CHEMBL4831541, “Antibiotic Conjugates with an Artificial MECAM-Based Siderophore Are Potent Agents against Gram-Positive and Gram-Negative Bacterial Pathogens” (2021)
# The source made the active and inactive calls. The rule behind the calls is not given here.
# Legend:
# Staphylococcus aureus = assay: Antibacterial activity against Staphylococcus aureus DSM11822 assessed as growth inhibition by measuring minimal concentration at OD600 by visual inspection with iron-limited media incubated for 24 hrs; format: functional
# Escherichia coli [1] = assay: Antibacterial activity against Escherichia coli delta fepA delta cirA delta fiu assessed as growth inhibition by measuring minimal concentration at OD600 by visual inspection with iron-limited media incubated for 24 hrs; format: functional
# Escherichia coli [2] = assay: Antibacterial activity against Escherichia coli K-12 BW25113 delta cyoB assessed as growth inhibition by measuring minimal concentration at OD600 by visual inspection with iron-limited media incubated for 24 hrs; format: functional
# Escherichia coli [3] = assay: Antibacterial activity against Escherichia coli delta cirA delta fiu assessed as growth inhibition by measuring minimal concentration at OD600 by visual inspection with iron-limited media incubated for 24 hrs; format: functional
# Escherichia coli [4] = assay: Antibacterial activity against Escherichia coli delta fepA assessed as growth inhibition by measuring minimal concentration at OD600 by visual inspection with iron-limited media incubated for 24 hrs; format: functional
# Escherichia coli [5] = assay: Antibacterial activity against Escherichia coli delta cirA assessed as growth inhibition by measuring minimal concentration at OD600 by visual inspection with iron-limited media incubated for 24 hrs; format: functional
# Pseudomonas aeruginosa = assay: Antibacterial activity against Pseudomonas aeruginosa DSM24068 assessed as growth inhibition by measuring minimal concentration at OD600 by visual inspection with iron-limited media incubated for 24 hrs; format: functional, organism-based
# Acinetobacter baumannii = assay: Antibacterial activity against Acinetobacter baumannii DSM30007 assessed as growth inhibition by measuring minimal concentration at OD600 by visual inspection with iron-limited media incubated for 24 hrs; format: functional
# Escherichia coli [6] = assay: Antibacterial activity against Escherichia coli delta exbB assessed as growth inhibition by measuring minimal concentration at OD600 by visual inspection with iron-limited media incubated for 24 hrs; format: functional
# Escherichia coli [7] = assay: Antibacterial activity against Escherichia coli BW25113 assessed as growth inhibition by measuring minimal concentration at OD600 by visual inspection with iron-limited media incubated for 24 hrs; format: functional
# Escherichia coli [8] = assay: Antibacterial activity against Escherichia coli K-12 BW25113 assessed as growth inhibition after 21 serial passages by measuring minimal concentration at OD600 by visual inspection with iron-limited media incubated for 24 hrs; format: functional
# Escherichia coli [9] = assay: Antibacterial activity against wild type Escherichia coli BW25113 assessed as growth inhibition by measuring minimal concentration at OD600 by visual inspection with iron-limited media incubated for 24 hrs; format: functional
# Escherichia coli [10] = assay: Antibacterial activity against Escherichia coli K-12 BW25113 delta cyoB assessed as growth inhibition by measuring minimal concentration at OD600 measured after reintroduction of plasmid expressing cyoB G269D mutant by visual inspection with iron-limited media incubated for 24 hrs; format: functional
# Escherichia coli [11] = assay: Antibacterial activity against Escherichia coli delta fepB assessed as growth inhibition by measuring minimal concentration at OD600 by visual inspection with iron-limited media incubated for 24 hrs; format: functional
# Klebsiella pneumoniae = assay: Antibacterial activity against Klebsiella pneumoniae DSM11678 assessed as growth inhibition by measuring minimal concentration at OD600 by visual inspection with iron-limited media incubated for 24 hrs; format: functional, organism-based
# Enterococcus faecium = assay: Antibacterial activity against Enterococcus faecium DSM20477 assessed as growth inhibition by measuring minimal concentration at OD600 by visual inspection with iron-limited media incubated for 24 hrs; format: functional
# Escherichia coli [12] = assay: Antibacterial activity against Escherichia coli delta fiu assessed as growth inhibition by measuring minimal concentration at OD600 by visual inspection with iron-limited media incubated for 24 hrs; format: functional
# Escherichia coli [13] = assay: Antibacterial activity against Escherichia coli delta tonB assessed as growth inhibition by measuring minimal concentration at OD600 by visual inspection with iron-limited media incubated for 24 hrs; format: functional
# Escherichia coli [14] = assay: Antibacterial activity against Escherichia coli K-12 BW25113 delta exbB assessed as growth inhibition by measuring minimal concentration at OD600 by visual inspection measured after reintroduction of plasmid expressing full length exbB with iron-limited media incubated for 24 hrs; format: functional
# Escherichia coli [15] = assay: Antibacterial activity against Escherichia coli K-12 BW25113 delta exbB assessed as growth inhibition by measuring minimal concentration at OD600 by visual inspection measured after reintroduction of plasmid expressing exbB Q163 mutant with iron-limited media incubated for 24 hrs; format: functional
# Escherichia coli [16] = assay: Antibacterial activity against Escherichia coli delta fepA delta cirA assessed as growth inhibition by measuring minimal concentration at OD600 by visual inspection with iron-limited media incubated for 24 hrs; format: functional
# Escherichia coli [17] = assay: Antibacterial activity against Escherichia coli delta fepD assessed as growth inhibition by measuring minimal concentration at OD600 by visual inspection with iron-limited media incubated for 24 hrs; format: functional
# Escherichia coli [18] = assay: Antibacterial activity against Escherichia coli delta […] delta fiu assessed as growth inhibition by measuring minimal concentration at OD600 by visual inspection with iron-limited media incubated for 24 hrs; format: functional
# Escherichia coli [19] = assay: Drug uptake in Escherichia coli BW25113 delta entA assessed in membrane fraction pre-treated at 10 uM in presence of 0.1 uM iron(III) chloride hexahydrate by mass spectrometry based cell fractionation assay; format: functional, organism-based
# Escherichia coli [20] = assay: Recovery of growth in Escherichia coli BW25113 delta entA assessed as reversal of growth at 10 uM in presence of 0.1 uM iron(III) chloride hexahydrate by growth recovery assay; format: functional, organism-based
# [21] = Metal chelating activity assessed as Fe3+-compound complex formation measured after 17 hrs by chrome azurol S dye based colorimetric assay
# Escherichia coli [22] = assay: Drug uptake in Escherichia coli BW25113 delta entA assessed in cytoplasmic fraction pre-treated at 10 uM in presence of 0.1 uM iron(III) chloride hexahydrate by mass spectrometry based cell fractionation assay; format: functional, organism-based
# Escherichia coli [23] = assay: Drug uptake in Escherichia coli BW25113 delta entA assessed in peri-plasmic fraction pre-treated at 10 uM in presence of 0.1 uM iron(III) chloride hexahydrate by mass spectrometry based cell fractionation assay; format: functional, organism-based
MIC (Staphylococcus aureus) [µM],MIC (Acinetobacter baumannii) [µM],MIC (Escherichia coli [7]) [µM],MIC (Enterococcus faecium) [µM],SMILES,Activity (Pseudomonas aeruginosa),Activity (Klebsiella pneumoniae),other results
> 64,64,0.81,> 64,CC(=O)Oc1cccc(C(=O)NCc2cc(CNC(=O)c3cccc(OC(C)=O)c3OC(C)=O)c(NC(=O)CCOCCOCCOCCOCc3cn(CCC(=O)N[C@@H](C(=O)N[C@@H]4C(=O)N5[C@@H]4SC(C)(C)[C@@H]5C(=O)O)c4ccccc4)nn3)c(CNC(=O)c3cccc(OC(C)=O)c3OC(C)=O)c2)c1OC(C)=O,inactive,inactive,
,,,,O=C(NCc1cc(CNC(=O)c2cccc(O)c2O)c([N+](=O)[O-])c(CNC(=O)c2cccc(O)c2O)c1)c1cccc(O)c1O,,,Drug uptake (Escherichia coli [19]): Active; Activity (Escherichia coli [20]): Active; Activity [21]: Active; Drug uptake (Escherichia coli [22]): inactive; Drug uptake (Escherichia coli [23]): Active
5.3,> 57,0.89,> 57,CC1(C)S[C@@H]2[C@H](NC(=O)[C@H](NC(=O)CCn3cc(CCCC(=O)Nc4c(CNC(=O)c5cccc(O)c5O)cc(CNC(=O)c5cccc(O)c5O)cc4CNC(=O)c4cccc(O)c4O)nn3)c3ccccc3)C(=O)N2[C@H]1C(=O)O,inactive,inactive,
> 56,56,0.87,> 56,CC1(C)S[C@@H]2[C@H](NC(=O)[C@H](NC(=O)CCn3cc(CCCC(=O)Nc4c(CNC(=O)c5cccc(O)c5O)cc(CNC(=O)c5cccc(O)c5O)cc4CNC(=O)c4cccc(O)c4O)nn3)c3ccc(O)cc3)C(=O)N2[C@H]1C(=O)O,inactive,inactive,
8.7,4.4,> 64,13,CCCCCCCCCC(=O)N[C@@H](Cc1c[nH]c2ccccc12)C(=O)N[C@H](CC(N)=O)C(=O)N[C@@H](CC(=O)O)C(=O)N[C@@H]1C(=O)NCC(=O)N[C@@H](CCCNC(=O)CCCCCn2cc(CCCC(=O)Nc3c(CNC(=O)c4cccc(O)c4O)cc(CNC(=O)c4cccc(O)c4O)cc3CNC(=O)c3cccc(O)c3O)nn2)C(=O)N[C@@H](CC(=O)O)C(=O)N[C@H](C)C(=O)N[C@@H](CC(=O)O)C(=O)NCC(=O)N[C@H](CO)C(=O)N[C@@H]([C@@H](C)CC(=O)O)C(=O)N[C@@H](CC(=O)c2ccccc2N)C(=O)O[C@@H]1C,inactive,inactive,
,,,,CC(=O)Oc1cccc(C(=O)NCCc2cc(CCNC(=O)c3cccc(OC(C)=O)c3OC(C)=O)c([N+](=O)[O-])c(CCNC(=O)c3cccc(OC(C)=O)c3OC(C)=O)c2)c1OC(C)=O,,,Activity (Escherichia coli [20]): Active
> 46,46,1.4,> 46,CC(=O)Oc1cccc(C(=O)NCc2cc(CNC(=O)c3cccc(OC(C)=O)c3OC(C)=O)c(NC(=O)CCCc3cn(CCC(=O)N[C@@H](C(=O)N[C@@H]4C(=O)N5[C@@H]4SC(C)(C)[C@@H]5C(=O)O)c4ccc(O)cc4)nn3)c(CNC(=O)c3cccc(OC(C)=O)c3OC(C)=O)c2)c1OC(C)=O,inactive,inactive,

SMILES,MIC (Staphylococcus aureus) [µM],MIC (Acinetobacter baumannii) [µM],MIC (Escherichia coli [7]) [µM],MIC (Enterococcus faecium) [µM],Activity (Pseudomonas aeruginosa),Activity (Klebsiella pneumoniae),other results
CC(=O)Oc1cccc(C(=O)NCc2cc(CNC(=O)c3cccc(OC(C)=O)c3OC(C)=O)c(NC(=O)CCCc3cn(CCC(=O)N[C@@H](C(=O)N[C@@H]4C(=O)N5[C@@H]4SC(C)(C)[C@@H]5C(=O)O)c4ccccc4)nn3)c(CNC(=O)c3cccc(OC(C)=O)c3OC(C)=O)c2)c1OC(C)=O,0.12,≤ 0.09,≤ 0.09,0.62,inactive,inactive,MIC (Escherichia coli [1]): > 12 µM; MIC (Escherichia coli [2]): 2.9 µM; MIC (Escherichia coli [3]): 2.9 µM; MIC (Escherichia coli [4]): 2.9 µM; MIC (Escherichia coli [5]): 2.9 µM; MIC (Escherichia coli [6]): > 12 µM; MIC (Escherichia coli [8]): > 12 µM; Activity (Escherichia coli [9]): inactive; MIC (Escherichia coli [10]): 2.9 µM; MIC (Escherichia coli [11]): 2.9 µM; MIC (Escherichia coli [12]): 1.5 µM; MIC (Escherichia coli [13]): > 12 µM; MIC (Escherichia coli [14]): 2.9 µM; MIC (Escherichia coli [15]): > 12 µM; MIC (Escherichia coli [16]): 1.5 µM; MIC (Escherichia coli [17]): 1.5 µM; MIC (Escherichia coli [18]): 1.5 µM
